The text below walks through data of the supplement of paper PMC6723410.

In experiment [1] the test system is GUMC-403. In words: viability at highest tested concentration (max response) relative to DMSO (% of DMSO control); higher = less cytotoxic. Conditions: library / dose series: MIPE library, 11-point 1:3 dilution, 48 h. The method in brief: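 Patient-derived GUMC-403 papilloma cells grown by conditional reprogramming were plated at 700/well in 5 μL F + Y medium in 1536-well plates and incubated overnight at 37 °C. They then received 23 nL of MIPE 4.0 compounds by pin tool (11-point 1:3 series) for 48 h. CellTiter-Glo luminescence was read on a ViewLux and normalised with DMSO wells as 100% and empty wells as 0%. The value is viability at the highest tested concentration relative to DMSO control.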

Experiment [2] relates to GUMC-403. Kind of experiment: AC50 for reduction of cell viability; higher = less potent. The conditions noted are these: library / dose series: MIPE library, 11-point 1:3 dilution; 48 h.

The structures appear in SMILES notation.

Molecule `C=CC(=O)Nc1cccc(Nc2nc(NC3CCC(N(C)C)CC3)nc3c2ncn3C(C)C)c1` (stereo not drawn) came in with a viability in the experiment on GUMC-403 [1] (top concentration 46.1 µM) of 8.03. Also, the “AC50 for reduction of cell viability” value with GUMC-403 [2] was determined as 2.96 µM.
As for `FC(F)c1nc2ccccc2n1-c1nc(N2CCOCC2)nc(N2CCOCC2)n1`, the viability in the experiment on GUMC-403 [1] (top concentration 46.1 µM) was 71.9. The “AC50 for reduction of cell viability” value in the experiment with GUMC-403 [2] was found to be 0.418 µM.
The matching figures for `COc1cccc2c1C(=O)c1c(O)c3c(c(O)c1C2=O)C[C@@](O)(C(C)=O)C[C@@H]3O[C@H]1C[C@H](N)[C@H](O)[C@H](C)O1`: 33.5 and 0.372 µM.
`CC(=O)N1CCN(c2ccc(OCc3nn(C)c(C)c3-c3cccc4c(CCCOc5cccc6ccccc56)c(C(=O)O)n(Cc5cccnc5)c34)cc2)CC1`: the viability with GUMC-403 [1] (top concentration 46.1 µM) worked out at 3.86. Also, the “AC50 for reduction of cell viability” value with GUMC-403 [2] came to 7.43 µM.
The matching figures for `CC(C)c1cc(C(=O)N2Cc3ccc(CN4CCN(C)CC4)cc3C2)c(O)cc1O`: 75.9 and 0.833 µM.
For `CS[C@H]1SC[C@@H]2C(=O)N(C)[C@H](C(C)C)C(=O)OC[C@H](NC(=O)c3cnc4ccccc4n3)C(=O)N[C@H](C)C(=O)N(C)[C@H]1C(=O)N(C)[C@H](C(C)C)C(=O)OC[C@H](NC(=O)c1cnc3ccccc3n1)C(=O)N[C@H](C)C(=O)N2C`, the viability with GUMC-403 [1] (top concentration 46.1 µM) came out at 14.4. For the same molecule, in the experiment with GUMC-403 [2], the “AC50 for reduction of cell viability” value was determined as 0.0209 µM.
`Cc1n[nH]c2ccc(-c3cncc(OC[C@@H](N)Cc4c[nH]c5ccccc45)c3)cc12` had a viability in the experiment with GUMC-403 [1] (top concentration 46.1 µM) of 7.23. For the same molecule, the “AC50 for reduction of cell viability” value in the experiment on GUMC-403 [2] amounted to 1.87 µM.
The matching figures for `C=CCNC1=C2C[C@@H](C)C[C@H](OC)[C@H](O)[C@@H](C)/C=C(\C)[C@H](OC(N)=O)[C@@H](OC)/C=C\C=C(/C)C(=O)NC(=CC1=O)C2=O`: 65.3 and 4.18 µM.
The matching figures for `Cc1nc(N)ncc1-c1nc(N2CCOCC2)c2sc(C(C)(C)O)cc2n1`: 45.7 and 0.332 µM.
The matching figures for `COCCn1c2c([n+](Cc3cnccn3)c1C)C(=O)c1ccccc1C2=O`: 5.13 and 0.187 µM.
Take `Cc1ccc([N+](=O)[O-])cc1[S+](=O)([O-])N(C)/N=C/c1cnc2ccc(Br)cn12`: the viability with GUMC-403 [1] (top concentration 46.1 µM) worked out at 8.42. For the same molecule, the “AC50 for reduction of cell viability” value in the experiment with GUMC-403 [2] was 0.0235 µM.
The matching figures for `CC[C@H](NC1=C2N=C[NH]C2=NC=N1)C/3=N/C4=C(C(=CC=C4)F)C(=O)N3C5=CC=CC=C5`: 75.5 and 3.72 µM.
As for `COC(=O)Nc1ccc(-c2nc(N3CCOCC3)c3cnn(C4CCN(Cc5cccnc5)CC4)c3n2)cc1`, the viability with GUMC-403 [1] (top concentration 46.1 µM) came out at 23.5. Further, the “AC50 for reduction of cell viability” value with GUMC-403 [2] amounted to 1.05 µM.
In the experiment on GUMC-403 [1] (top concentration 46.1 µM), `NC(=O)c1ccc2[nH]c(-c3ccc(Oc4ccc(Cl)cc4)cc3)nc2c1` yielded a viability of 79.5. For the same molecule, the “AC50 for reduction of cell viability” value in the experiment with GUMC-403 [2] was found to be 2.64 µM.
The matching figures for `CCN1CCN(Cc2ccc(-c3cc4c(N[C@H](C)c5ccccc5)ncnc4[nH]3)cc2)CC1`: 69 and 0.372 µM.
On the same counts, the results for `CN(C)c1ccc2nc3ccc(N(C)C)cc3[s+]c2c1` are 6.57 and 7.43 µM.
`Cc1nc(Nc2n[nH]c3c2CN(C(=O)N[C@H](CN(C)C)c2ccccc2)C3(C)C)c2sccc2n1` returned a viability in the experiment on GUMC-403 [1] (top concentration 46.1 µM) of 7.84. For the same molecule, the “AC50 for reduction of cell viability” value in the experiment on GUMC-403 [2] came out at 3.72 µM.
In the experiment with GUMC-403 [1] (top concentration 46.1 µM), `O=C(OC)[C@]12CC[C@@]3(C)[C@]4(C)CC[C@H]5[C@@](C)(C)C(=O)C(=C[C@]5(C)C4=CC(=O)[C@@H]3[C@@H]2C[C@](C)(C)CC1)C#N` showed a viability of 4.67. For the same molecule, in the experiment with GUMC-403 [2], the “AC50 for reduction of cell viability” value amounted to 2.96 µM.
Molecule `CC1(C)OC/2=C(\[C@H](NCC3=CC=CC=C3)[C@@H]1O)C(=O)C4=CC=CC=C4C2=O` gave a viability in the experiment with GUMC-403 [1] (top concentration 46.1 µM) of 5.84. Further, the “AC50 for reduction of cell viability” value in the experiment with GUMC-403 [2] amounted to 7.43 µM.
On the same counts, the results for `Cc1nc(N)sc1-c1ccnc(Nc2ccc(N3CCOCC3)cc2)n1` are 29.8 and 26.4 µM.
In the experiment with GUMC-403 [1] (top concentration 46.1 µM), `COc1ccc(F)c(F)c1C(=O)c1cnc(NC2CCN([S+](C)(=O)[O-])CC2)nc1N` gave a viability of 55.6. Further, in the experiment with GUMC-403 [2], the “AC50 for reduction of cell viability” value is 4.69 µM.
On the same counts, the results for `C[S+](=O)([O-])N1CCc2c(-c3cnc(N)nc3)nc(N3CCOCC3)nc21` are 46.2 and 0.332 µM.
In turn, `CCNC(=O)c1noc(-c2cc(C(C)C)c(O)cc2O)c1-c1ccc(CN2CCOCC2)cc1` registered a viability in the experiment on GUMC-403 [1] (top concentration 46.1 µM) of 74.5. The “AC50 for reduction of cell viability” value with GUMC-403 [2] was 0.296 µM.
In the experiment with GUMC-403 [1] (top concentration 46.1 µM), `CN(C)c1ccc2cc(C(=O)N[C@@H](CCCNC(=N)CCl)C(=O)NCc3ccccc3)ccc2c1` returned a viability of 46.3. Further, the “AC50 for reduction of cell viability” value in the experiment with GUMC-403 [2] worked out at 20.9 µM.
The matching figures for `CO[C@H]1/C=C\C=C(\C)C(=O)NC2=CC(=O)C(NCCN(C)C)=C(C[C@@H](C)C[C@H](OC)[C@H](O)[C@@H](C)/C=C(/C)[C@@H]1OC(N)=O)C2=O`: 5.25 and 1.18 µM.
Turning to `Cc1cnc(Nc2ccc(N3CCN(C)CC3)cc2)nc1Nc1cccc([S+](=O)([O-])NC(C)(C)C)c1`, the viability in the experiment on GUMC-403 [1] (top concentration 46.1 µM) worked out at 30.2. Further, in the experiment with GUMC-403 [2], the “AC50 for reduction of cell viability” value was 16.6 µM.
As to `Cc1[nH]c2ccccc2c1CCNCc1ccc(/C=C/C(=O)NO)cc1`, the viability with GUMC-403 [1] (top concentration 46.1 µM) came to 38.2. Moreover, the “AC50 for reduction of cell viability” value in the experiment on GUMC-403 [2] stood at 2.64 µM.
As to `CCN1CCN(CC1)CC(=O)NC2=CC=C(C3=C2C4=C(S3)C=CC=C4)C5=C6O\C(=C/C(=O)C6=CC=C5)N7CCOCC7`, the viability in the experiment with GUMC-403 [1] (top concentration 46.1 µM) was found to be 58.7. Also, the “AC50 for reduction of cell viability” value with GUMC-403 [2] came to 2.96 µM.
With `COC[C@H](NC(=O)c1cnc(C)s1)C(=O)N[C@@H](COC)C(=O)N[C@@H](Cc1ccccc1)C(=O)[C@@]1(C)CO1`, the viability in the experiment on GUMC-403 [1] (top concentration 46.1 µM) is 8.89. In addition, in the experiment on GUMC-403 [2], the “AC50 for reduction of cell viability” value was determined as 6.62 µM.
In the experiment on GUMC-403 [1] (top concentration 46.1 µM), `O=C(Nc1ccc([N+](=O)[O-])cc1Cl)c1cc(Cl)ccc1O` yielded a viability of 53.9. Also, the “AC50 for reduction of cell viability” value in the experiment with GUMC-403 [2] was found to be 4.18 µM.
The matching figures for `Cc1nc(NC(=O)N2CCC[C@H]2C(N)=O)sc1-c1csc(C(C)(C)C)n1`: 30.8 and 10.5 µM.
As to `Oc1cccc(-c2nc(N3CCOCC3)c3oc4ncccc4c3n2)c1`, the viability with GUMC-403 [1] (top concentration 92.2 µM) is 28.3. Moreover, in the experiment on GUMC-403 [2], the “AC50 for reduction of cell viability” value was found to be 0.762 µM.
The molecule `CN(C)C1CCN(C(=O)c2ccc(NC(=O)Nc3nc(N4CCOCC4)nc(N4CCOCC4)n3)cc2)CC1` returned a viability in the experiment on GUMC-403 [1] (top concentration 46.1 µM) of 44.5. In addition, in the experiment with GUMC-403 [2], the “AC50 for reduction of cell viability” value is 0.0372 µM.
The matching figures for `C[S+](=O)([O-])CCNCc1ccc(-c2ccc3ncnc(Nc4ccc(OCc5cccc(F)c5)c(Cl)c4)c3c2)o1`: 8.12 and 10.5 µM.
On the same counts, the results for `C[C@@H](Oc1ccc2[nH]nc(/C=C/c3cnn(CCO)c3)c2c1)c1c(Cl)cncc1Cl` are 18.4 and 16.6 µM.
On the same counts, the results for `COc1ccc(Nc2cc(-c3cnc(N)nc3)nc(N3CCOCC3)n2)cn1` are 31.5 and 2.96 µM.
On to `COC(=O)Nc1ccc(-c2nc(N3CCOCC3)c3cnn(C4CCN(C(=O)OC)CC4)c3n2)cc1`, for which the viability with GUMC-403 [1] (top concentration 46.1 µM) worked out at 13.8. Moreover, in the experiment on GUMC-403 [2], the “AC50 for reduction of cell viability” value came out at 0.0264 µM.
On the same counts, the results for `CN(C)c1ccc(C(=O)NCCCCCCC(=O)NO)cc1` are 33.9 and 18.7 µM.
The molecule `Cn1cc(CNCC2CCN(c3ncc(C(=O)NO)cn3)CC2)c2ccccc21` showed a viability with GUMC-403 [1] (top concentration 46.1 µM) of 33.5. Besides, the “AC50 for reduction of cell viability” value with GUMC-403 [2] is 2.96 µM.
On the same counts, the results for `CNC(=O)Nc1ccc(-c2nc(N3CC4CCC(C3)O4)c3cnn(C4CCC5(CC4)OCCO5)c3n2)cc1` are 62.9 and 0.00332 µM.
The molecule `O=C(NC1CCNCC1)c1n[nH]cc1NC(=O)c1c(Cl)cccc1Cl` came in with a viability in the experiment on GUMC-403 [1] (top concentration 46.1 µM) of 10.5. Besides, in the experiment on GUMC-403 [2], the “AC50 for reduction of cell viability” value stood at 1.05 µM.
On the same counts, the results for `CC(C)CC(=O)Nc1n[nH]c2c1CN(C(=O)C1CCN(C)CC1)C2(C)C` are 15.9 and 1.48 µM.
On the same counts, the results for `CC(C)c1cnn2c(NCc3ccccc3)cc(N[C@@H](CO)[C@H](O)CO)nc12` are 19.1 and 0.372 µM.
`CC(C)C[C@H](NC(=O)CNC(=O)c1cc(Cl)ccc1Cl)B(O)O` came in with a viability in the experiment on GUMC-403 [1] (top concentration 46.1 µM) of 14.7. Also, the “AC50 for reduction of cell viability” value with GUMC-403 [2] was 3.32 µM.
Molecule `Nc1nc(F)nc2c1ncn2[C@@H]1O[C@H](CO)[C@@H](O)[C@H]1O` registered a viability in the experiment on GUMC-403 [1] (top concentration 46.1 µM) of 47.8. Besides, the “AC50 for reduction of cell viability” value with GUMC-403 [2] stood at 3.72 µM.
On to `O=C1c2ccccc2-[n+]2ccc3c([nH]c4ccccc43)c21`, for which the viability in the experiment with GUMC-403 [1] (top concentration 46.1 µM) stood at 3.22. In addition, the “AC50 for reduction of cell viability” value in the experiment with GUMC-403 [2] is 4.18 µM.
The matching figures for `CC(C)N[C@@H]1CCn2c(=O)[nH]c3cccc(c32)[C@H]1O`: 30.4 and 9.35 µM.
The matching figures for `CCNC(=O)Nc1ccc(-c2nc3c(c(N4CCOC[C@@H]4C)n2)CCN(C2COC2)C3)cc1`: 60.3 and 1.18 µM.
In turn, `CCOC(=O)[C@H](CCc1ccccc1)N[C@@H](C)C(=O)N1[C@H](C(=O)O)C[C@@H]2CCC[C@@H]21` returned a viability with GUMC-403 [1] (top concentration 46.1 µM) of 4.65. Also, the “AC50 for reduction of cell viability” value with GUMC-403 [2] was 26.4 µM.
